Where two headings read alike, the source gives them in different places.
Columns and labels:
Akt = experiment: Inhibition of Ras downstream pathways: Akt phosphorylation; assay type: cell-based; settings: Homo sapiens, read-out: IC50 phosphorylation and activation of Akt
Description: (§1) The inhibitory effects of compounds COMPOUND I was tested on Ras-associated signal transduction pathways in three different human cell lines: the pancreatic cell-lines PANC-1 (K-Ras G12D mutant), MIA PaCa-2 (K-Ras G12C mutant), and the non-small cell lung cancer cell-line NCI-H1975 (KRas WT). FIG. 8 illustrate the inhibitory effects of COMPOUND I on phosphorylation and activation of MEK, Erk1/2 and Akt in those three cell lines. […] In contrast, the IC50s of compound COMPOUND I on the phosphorylation and activation of MEK and Erk1/2 were approximately 2 μM in PANC-1 and MIA PaCa-2 and 3 μM in NCI-H1975; and, of Akt, were approximately 5 μM in PANC-1 and MIA PaCa-2 and 5 μM in NCIH1975 (FIG. 8).

[1] = test system: Bcl-2, Bax, caspase-9, caspase-3, PARP; experiment: Western blotting of apoptosis-related proteins; assay type: cell-based; settings: western blot
Description: (§2) To confirm that COMPOUND I induced cell apoptosis, DNA fragmentation assay, was performed. […] Furthermore, the expression levels of proteins related to apoptosis and cell cycle progression by western blotting were examined. Cells were treated with COMPOUND I at different concentrations and total proteins were isolated. Beta-Actin was used as an internal control. […] The effect of drugs on the cleavage of procaspase 9 and procaspase 3 were examined. […] Caspase-3 is a key regulator of mitochondrial dependent and independent apoptotic pathways and activation of caspase-3 leads to cleavage of several substrates including PARP.

MEK, Erk1/2 and Akt = experiment: Inhibition of Ras downstream pathways (summary over readouts and cell lines); assay type: cell-based; settings: Homo sapiens; PANC-1, MIA PaCa-2 and NCI-H1975; read-out: IC50 phosphorylation and activation of MEK, Erk1/2 and Akt
Description: as §1

Erk1/2 = experiment: Inhibition of Ras downstream pathways: Erk1/2 phosphorylation; assay type: cell-based; settings: Homo sapiens, read-out: IC50 phosphorylation and activation of Erk1/2
Description: as §1

[2] = test system: PANC-1, MIA PaCa-2, NCIH1975, A549 (K-Ras G12S mutant), NCI-H1299 (N-Ras Q61K mutant); experiment: Cellular proliferation of Ras wild type/mutant cell lines; assay type: cell-based; settings: Homo sapiens; range over all tested cell lines
Description: The inhibition of compounds COMPOUND I on the cellular proliferation of […] cell lines were measured: The three cell lines in the signaling studies (PANC-1, MIA PaCa-2, NCIH1975), and the non-small cell lung cancer lines A549 (K-Ras G12S mutant) and NCI-H1299 (N-Ras Q61K mutant). FIG. 7 and IC50 values measured in these studies. […] Consistent with the notion that these compounds are pan-Ras superfamily inhibitors, it is reasonable to speculate that they can inhibit pathways downstream of several members of the Rassuperfamily.

Ras-GTP complex = experiment: Ras pull-down assay; assay type: cell-based, human; settings: PANC-1, MIA PaCa-2 and NCIH1975; read-out: IC50 Ras-GTP complex formation
Description: As a follow up to the downstream assays, the ability of COMPOUND I was also measured to inhibit Ras-GTP complex formation in the three tested cell-lines (PANC-1, MIA PaCa-2 and NCIH1975) using a Ras pull-down assay. […] These values correlate well with the IC50 values obtained for the inhibition of MEK, Erk1/2 and Akt phosphorylation presented in FIGS. 2 and 3.

Akt, mTOR, ERK = experiment: Akt/mTOR/ERK pathway activation; assay type: cell-based
Text: In order to better understand the molecular basis of COMPOUND I induced cell cycle arrest and apoptosis, the expression of Akt and mTOR was investigated with various concentrations of COMPOUND I. Akt/mTOR is an important cell survival pathway and activated Akt inhibits apoptosis leading to cell survival. […] Additionally, it was examined whether COMPOUND I effect involved ERK signaling pathway and found the decreased activation of ERK.

MEK = experiment: Inhibition of Ras downstream pathways: MEK phosphorylation; assay type: cell-based; settings: Homo sapiens, read-out: IC50 phosphorylation and activation of MEK
Description: as §1

apoptosis = experiment: DNA fragmentation assay / apoptosis quantitation; assay type: cell-based
Description: as §2

[3] = test system: MCF7, HT-29, HEP G2, A549; experiment: Cell viability (MTT assay) on human adenocarcinoma cell lines; assay type: cell-based; settings: 48 hours, 250 to 0.97 nmol/L
Description: (§3) Several cell lines including human breast carcinoma (MCF7), colon adenocarcinoma (HT-29), Liver adenocarcinoma (HEP G2), Lung adenocarcinoma (A549) were treated with a range of COMPOUND I for 48 hours and the percentage of cell viability was determined by MTT assay. The average total viable cells were precisely calculated and anti-proliferative effects were determined. […] The drug were also tested on normal monkey Kidney epithelial cells.

[4] = test system: normal monkey Kidney epithelial cells; experiment: MTT cytotoxicity on normal cells; assay type: cell-based; settings: normal monkey Kidney epithelial cells versus cancer cell lines
Description: as §3

KRAS Mutated cell lines = experiment: Flow cytometry cell cycle distribution; assay type: cell-based
Description: (§4) Flow cytometry analysis was performed to verify whether COMPOUND I induced apoptosis was related to cell cycle arrest. Cell cycle distribution in KRAS Mutated cell lines was quantified after treatment with different COMPOUND I concentrations. […] Therefore, it was attempted to determine whether COMPOUND I treatment also can influence the expression level of G1/S phase cell cycle regulatory proteins.

[5] = test system: p53, p21, p27, Cyclin B, cdc2, CDK2, CDK4, CDK6, Cyclin D1, Cyclin D3, pRb; experiment: Protein levels of cell cycle regulatory proteins; assay type: cell-based
Description: as §4

Control cell lines = experiment: Cell-cycle regulation and apoptosis in control cell lines; assay type: cell-based; settings: control cell lines compared with KRAS Mutated cell lines

IC50 (Akt; NCI-H1975, NCIH1975 (KRas WT)): ~5000 nM | IC50 (Akt; MIA PaCa-2 (K-Ras G12C mutant)): ~5000 nM | IC50 (Akt; PANC-1 (K-Ras G12D mutant)): ~5000 nM | IC50 (MEK, Erk1/2 and Akt): 1000 to 3000 nM | IC50 (Erk1/2; MIA PaCa-2 (K-Ras G12C mutant)): ~2000 nM | IC50 (Erk1/2; NCI-H1975 (KRas WT)): ~3000 nM | IC50 (Erk1/2; PANC-1 (K-Ras G12D mutant)): ~2000 nM | IC50 [2]: 450 to 1200 nM | IC50 (Ras-GTP complex): 2000 to 3000 nM | IC50 (MEK; MIA PaCa-2 (K-Ras G12C mutant)): ~2000 nM | IC50 (MEK; NCI-H1975 (KRas WT)): ~3000 nM | IC50 (MEK; PANC-1 (K-Ras G12D mutant)): ~2000 nM
Structure (SMILES): COc1cc(C(C)=O)ccc1C(=O)COP(=O)(O)OP(=O)(O)OP(=O)(O)OCC1OC(n2cnc3c(=O)[nH]c(Nc4ccc(O)cc4)nc32)C(O)C1O (centres unmarked) [COMPOUND I]
cleavage of PARP into 116 kDa and 84 kDa fragment [1]: induced the cleavage of PARP | cleavages of procaspase 9 and procaspase 3 [1]: induced in a dose-dependent manner | expression of Bcl-2 ([1]; dose dependent): down regulated | expression of proapoptotic proteins Bax, caspase-9 and caspase-3 ([1]; dose dependent): induced expression | total Akt and mTOR levels (Akt, mTOR, ERK): remained constant | phosphorylation of Akt and mTOR (Akt, mTOR, ERK; Serine 473 and Serine 2448, concentration-dependent): suppressed | phosphorylation of ERK (Akt, mTOR, ERK; Threonine 202 and Tyrosine 204): suppressed | DNA fragmentation (ladder pattern in agarose gels) (apoptosis; 48 hours, all concentrations tested): lead to DNA fragmentation | apoptosis (quantitative analysis) (apoptosis; treated cells): significant increase of apoptosis | proliferation / cell viability [3]: inhibited the proliferation of all the cell lines in a dose-dependent manner | sensitivity to induced cytotoxicity [4]: less sensitive | cells showing G1/S phase arrest (KRAS Mutated cell lines): 23.98% | number of cells in the G2/M phase (KRAS Mutated cell lines): 76.89% | expression levels of p21, p27 and p53 ([5]; KRAS Mutated cell lines): Greater expression levels | expression levels of CDK4, CDK6, Cyclin D1, Cyclin D3, pRb ([5]; dose-dependent): decreased significantly | expression levels of Cyclin B, cdc2, CDK2 ([5]; dose-dependent): decreased significantly | changes in cell-cycle regulation and apoptosis (Control cell lines): better protected

Reference: patent US20260207648A1, “NOVEL SMALL MOLECULE KRAS INHIBITOR: DRUGGING UNDRUGGABLE TARGETS FOR CANCER THERAPEUTICS” (PILLAI UNIVERSAL LLC, priority 2022, published 2026)
